“Also recorded” adds a separate entry of the source.
Key:
[1] = tested on: tumor cells from various origins; assay: Clonogenic assays with ionizing radiation (radiosensitization); assay type: cell-based
Description: Using clonogenic assays, we confirmed that induction of mitotic enrichment by ABT-751 radiosensitizes tumor cells from various origins. To achieve induction of mitotic enrichment, we exposed cells to 1 μM of ABT-751 for 6 hours, at which time we exposed cells to a dose range of ionizing radiation (FIG. 4A). Directly after irradiation, we washed ABT-751 away and waited for 18 hours before the process was repeated. In total, the process of induction of mitotic enrichment and subsequent irradiation was repeated 4 times to resemble a clinical hyperfractionation schedule. After the last fraction, cells were left to grow out into viable colonies and clonogenic potential was quantified. […] In the first set-up, we irradiated cells prior to exposure to ABT-751 (FIG. 5A). In the second approach, we irradiated cells prematurely after only 1 hour of exposure to ABT-751 while maintaining the total exposure time of ABT-751 at 6 hours (FIG. 5B).

[2] = tested on: cancer cell lines of various origins (brain, colorectal, prostate, head & neck and cervical cancer); assay: Flow cytometric cell cycle analysis (propidium iodide and phospho-histone H3 staining); assay type: cell-based
Description: We first studied whether ABT-751 increases the mitotic population of cancer cell lines (FIG. 1). Several lines of various origins—brain, colorectal, prostate, head & neck and cervical cancer—were exposed to a dose range of ABT-751 and incubated for 6 hours, after which the cell cycle was analyzed by flow cytometry. […] This analysis confirmed that ABT-751 dose-dependently increases the mitotic population of cancer cell lines at the expense of the relatively radio-resistant G1 population. […] This shift in cell cycle distribution will hereafter be referred to as induction of mitotic enrichment. […] Importantly, the G2 phase of the cell cycle is unaffected. […] In the first set-up, we irradiated cells prior to exposure to ABT-751 (FIG. 5A). In the second approach, we irradiated cells prematurely after only 1 hour of exposure to ABT-751 while maintaining the total exposure time of ABT-751 at 6 hours (FIG. 5B).

[3] = tested on: GSC457 brain cancer cells; assay: Mitotic enrichment (p-H3 immunohistochemistry) in orthotopic GSC457 brain tumors; assay type: in vivo, mice
Description: To study the pharmacokinetic-pharmacodynamic relationship of ABT-751 in vivo, we made use of a genetically engineered mouse model-derived brain cancer model that was previously established in our lab. We implanted these GSC457 brain cancer cells in the brains of recipient mice and followed up their growth using bioluminescence imaging. When full-blown tumors had established, we treated tumor-bearing mice with different doses of ABT-751 and collected their brains 6 hours or 24 hours after administration. […] We next aimed to confirm whether repeated induction of mitotic enrichment was feasible and efficient in vivo. Using the same murine brain cancer model as described above, we quantified the number of mitotic cells in tumors 6 hours after administration of one dose of 50 mg/kg of ABT-751 and compared the levels to those in tumors 6 hours after receiving a second administration of 50 mg/kg of ABT-751 either 24 or 48 hours after the first administration. We again confirmed that mitotic enrichment can efficiently be induced by ABT-751 in brain cancer in vivo (FIG. 8). […] In the clinic, the standard-of-care for glioblastoma—the most common and aggressive adult brain cancer—involves ionizing radiation and concomitant alkylating chemotherapy using temozolomide. Therefore, we next confirmed that induction of mitotic enrichment in vivo using ABT-751 is compatible with chemo-radiotherapy.

[4] = Plasma and brain concentration after oral administration (LC-MS/MS); assay type: in vivo; details: mice, oral 50 mg/kg
Description: In order to facilitate the in vivo translation of the radiosensitization approach, we first established the dose level that achieved clinically relevant plasma concentrations in mice. Using a validate LC-MS/MS method, we measured the plasma concentration—time curve in mice following oral administration of 50 mg/kg ABT-751 in formulation containing DMSO:Cremophor EL:H2O (1:1:8).

[5] = tested on: U87 human brain cancer cell line; assay: Radiosensitization efficacy study, orthotopic U87 model; assay type: in vivo, mice
Text: This U87 model is more intrinsically radiosensitive and was therefore irradiated with fractions of 1 Gy instead of 4 Gy as used above.

[6] = Animal weights throughout efficacy studies; assay type: in vivo; details: mice bearing orthotopic GSC457, U87 or GBM8 tumors
Text: Finally, to investigate whether the mitotic enrichment strategy using ABT-751 induced toxicity in healthy tissues we studied several parameters.

GBM8 tumors = assay: Radiosensitization efficacy study, orthotopic GBM8 model; assay type: in vivo, mice
Description: Mice bearing these GBM8 tumors were stratified between 5 treatment arms: • 1. Control treatment, • 2. 100 mg/kg daily ABT-751 for 4 days/week for 6 consecutive weeks • 3. 4 […] Gy of ionizing radiotherapy (RT) for 4 days/week for 6 consecutive weeks • 4. ABT-751 given 6 hours prior to RT for 4 days/week for 6 consecutive weeks • 5. RT administered prior to ABT-751 for 4 days/week for 6 consecutive weeks
(§1) The growth of these tumors could be followed up using bioluminescence imaging.

GSC457 tumors = assay: Radiosensitization efficacy study, orthotopic GSC457 tumors; assay type: in vivo, mice; details: 4 weeks
Description: The first model is described above and was also used to study the […] relationship in FIGS. 7-9. Mice bearing these GSC457 tumors were stratified between 5 treatment arms: • 1. Control treatment, • 2. 50 mg/kg daily ABT-751 for 4 days/week for 4 consecutive weeks • 3. 4 Gy of ionizing radiotherapy (RT) for 4 days/week for 4 consecutive weeks • 4. ABT-751 given 6 hours prior to RT for 4 days/week for 4 consecutive weeks • 5. RT administered prior to ABT-751 for 4 days/week for 4 consecutive weeks
as §1

[7] = tested on: GSC457 tumors and healthy surrounding brain tissue; assay: Immunohistochemistry for DNA damage and apoptosis markers, on-treatment samples, orthotopic GSC457 tumors; assay type: in vivo, mice; details: ABT-751 prior to radiotherapy
[8] = tested on: various cancer cell lines; assay: Cell survival assay; assay type: cell-based; details: 1 μM ABT-751, up to 10 hours of exposure
Text: Importantly, induction of mitotic enrichment could be achieved without inducing cytotoxicity.

[9] = cells irradiated prior to exposure to ABT-751
[10] = dose range of ABT-751, incubated for 6 hours
[11] = two brain cancer cell lines, 1 μM for up to 8 hours, washed away, followed until 48 hours
[12] = ABT-751 6 hours prior to RT, versus radiotherapy
[13] = ABT-751 alone, 100 mg/kg daily, 4 days/week, 6 weeks
[14] = healthy surrounding brain tissue

COc1ccc(S(=O)(=O)Nc2cccnc2Nc2ccc(O)cc2)cc1 [ABT-751, N-[2-(4-hydroxyanilino)-3-pyridinyl]-4-methoxybenzenesulfonamide]
clonogenic potential (radiosensitization) ([1]; 1 μM ABT-751 for 6 hours before ionizing radiation, repeated 4 times): radiosensitizes cancer cells of various origins | clonogenic potential (radiosensitization) ([1]; cells irradiated after only 1 hour of exposure, total exposure 6 hours): In neither of the sequences radiosensitizing effects of ABT-751 were observed | clonogenic potential (radiosensitization) [1, 9]: In neither of the sequences radiosensitizing effects of ABT-751 were observed | mitotic enrichment [2, 9]: could not induce mitotic enrichment when cells were irradiated prior to exposure | G1 cells (DNA 2N, pHH3-) [2, 10]: at the expense of G1 cells | S phase cells (DNA 2N-4N, pHH3-) [2, 10]: stay unaffected | amount of G2 cells (DNA 4N, pHH3-) [2, 10]: appears to increase slightly | percentage of mitotic cells (DNA 4N, pHH3+) [2, 10]: dose-dependently increases the percentage of mitotic cells | G2 phase of the cell cycle [2, 11]: unaffected | mitotic population over time and after wash-out (reversibility) [2, 11]: induces a time-dependent increase of the mitotic population that reverts back to pre-exposure levels after the drug is removed | concentration at which maximum achievable mitotic enrichment was achieved ([2]; within 6 hours, all cell lines tested): 1 µM | mitotic population ([3]; all doses, 24 hours after administration): reverted to baseline levels | mitotic enrichment in brain tumors (p-H3 staining) ([3]; different doses, brains collected 6 hours after administration): dose-dependently induced mitotic enrichment in brain tumors in vivo | mitotic enrichment ([3]; given concomitantly with chemo-radiotherapy involving temozolomide): can induce mitotic enrichment | mitotic enrichment ([3]; given concomitantly with radiotherapy alone): can induce mitotic enrichment | doses achieving the most clear increases in mitotic enrichment ([3]; p-H3 staining, GSC457 tumors): ≥ 50 mg/kg | repeated induction of mitotic enrichment ([3]; second 50 mg/kg dose 24 or 48 hours after the first, 6 hours after administration): feasible without loss of efficiency when a waiting period of 24 hours or longer is observed between subsequent doses | concentration in the brain ([4]; 8 hours after administration, 50 mg/kg): still in the range of the concentration that is sufficient to induce mitotic enrichment in vitro; also recorded: supersede the concentration required to achieve mitotic enrichment in vitro for up to 8 hours | plasma concentration ([4]; DMSO:Cremophor EL:H2O (1:1:8)): in the range of those achieved in patients at a clinically safe dose levels for up to 8 hours | survival benefit ([5]; ABT-751 6 hours prior to RT, fractions of 1 Gy): doubled the survival benefit that was achieved by RT alone | survival benefit ([5]; ABT-751 administered after RT): did not achieve a survival benefit | weight of mice [6]: no treatment-related weight loss | survival (GBM8 tumors; [12]): extended survival | tumor growth (GBM8 tumors; [12]): further slowed down tumor growth | efficacy (tumor growth, survival) (GBM8 tumors; ABT-751 administered after radiotherapy): Increased efficacy could not be observed | survival (GBM8 tumors; [13]): did not affect | tumor growth (GBM8 tumors; [13]): did not affect tumor growth | effect of RT on tumor growth and mouse survival (GSC457 tumors; 50 mg/kg ABT-751 6 hours prior to 4 Gy RT, 4 days/week): could be enhanced by given ABT-751 6 hours prior to every fraction of radiotherapy | radiosensitizing effect (GSC457 tumors; RT administered prior to ABT-751, 4 days/week): a similar radiosensitizing effect could not be observed | DNA damage (yH2A.X) [7, 14]: did not increase DNA damage (yH2A.X) | apoptosis (cleaved-Caspase 3) [7, 14]: did not increase | apoptosis ([7]; in the tumor, compared to radiotherapy alone): did strongly increase apoptosis specifically in the tumor compared to radiotherapy alone | viability (cytotoxicity) [8]: No loss of viability was observed up to 10 hours of exposure

From patent US12551471B2, “ABT-751 and ionizing radiation” (Stichting Het Nederlands Kanker Instituut-Antoni van …, priority 2020, dated 2026)
